We go through two molecules from patent US10844013B2, “Phenyl amino piperidine mTORC inhibitors and uses thereof” (Navitor Pharmaceuticals, Inc., priority 2016, dated 2020).

What all share (assay type): cell-based
The test system of test [1] is MCF-7 cells. The test is described as follows: Radioactive glucose uptake in MCF-7 cells. Particulars: Homo sapiens, MCF7, 3H-2DG uptake. As to the method: Example 157: Radioactive Glucose Uptake in MCF-7 Cells
Assay Protocol • 1. Seed approximately 12,000 MCF-7 cells cultured without insulin per well in 96-well plates (BIOCOAT, #356690) and let the cells sit in hood for 30 min. (Cell culture medium: DMEM+10% FBS). • 2. Put the cell culture plates in TC incubator (5% CO2, 37° C.) and incubate overnight. • 3. Take out the cell plates and wash with prewarmed KRH buffer (37° C.) three times using BioTek plate washer. (KRH buffer preparation: 136 mM NaCl, 4.7 mM KCl, 1.25 mM MgCl2, 1.2 mM CaCl2), 20 mM HEPES, 0.1 mg/ml sodium pyruvate, 0.1% BSA, pH 7.4). • 4. Compound preparation and treatment: • a) Add 12 ul compound stock in 100% DMSO to the first column of Echo LDV plate • b) Serially dilute the compound solution in 100% DMSO (4 uL+8 uL DMSO) using Bravo for 9 doses • c) Dispense 350 nL compounds using Echo to the working plate. • d) i) Without compound preincubation condition, dispense 116 uL KRH buffer containing tritiated 2-deoxy-D-glucose (3H-2DG) and 2-deoxy-D-glucose (2DG) to the working plate and mix. • ii. With compound preincubation condition, dispense 110 uL KRH buffer only to the working plates and mix • e) Keep the compound working plate at 37° C. incubator until use • 5. Discard the KRH buffer (cells were kept in KRH buffer for 10-15 min before 2-DG addition) and transfer 100 uL compound working solution out to the cell culture plate using Bravo. Incubate for 20 mins at 37° C. (2DG final at 0.2 mM, 3H-2DG at 10 uCi/mL). • 6. Add prewarmed 50 uL KRH buffer (37° C.) containing 60 mM cold 2DG to the wells to stop the 2DG uptake using Multidrop combi • 7. Wash the cells with prewarmed PBS three times using BioTek plate washer • 8. Add 50 uL lysis buffer (0.1 M NaOH) into the assay plate to lyse the cells using Bravo and shake at 800 rpm for 30 min. • 9. Mix and transfer 20 uL lysate to a new white plate (Corning, #3610) and add 200 uL MicroScint-20 using Bravo • 10. Shake the plate at 1000 rpm for 30 min and count in a MicroBeta plate reader.

Test [2] relates to pAKT (p-Akt 1/2/3 (Ser473)) in MCF-7 cells. Nature of the test: AlphaLISA Ultra pAKT assay. The note with it: Homo sapiens, MCF7, 2 hours compound incubation. The procedure, abridged: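 MCF-7 cells seeded 20-24 h, medium refreshed for 2 h, then treated with compounds for 2 h at 0.5% final DMSO. Lysates frozen at −80 °C, then pAKT detected by AlphaLISA with acceptor and donor beads, 2 h each.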

Test [3] concerns pS6K1 (p-p70 S6 Kinase (Thr389)) in MCF-7 cells. The test is described as follows: AlphaLISA Ultra pS6K1 assay. Particulars: Homo sapiens, MCF7, 2 h, 2 hours compound incubation. The procedure, abridged: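 MCF-7 cells seeded 20–24 h, medium refreshed 2 h, then treated 2 h with compound (0.5% DMSO final). Lysates probed for Thr389-phosphorylated p70 S6K by AlphaLISA Ultra, 2 h acceptor then 2 h donor bead incubation, read on a multimode reader.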
(In Alpha technology, singlet oxygen from a donor bead excites a nearby acceptor bead.)

In test [4] the test system is MCF-7 cells. Nature of the test: ATP/Rotenone assay, glucose dose response, MCF-7 cells. The note with it: Homo sapiens, MCF7, 10 uM rotenone pre-treat, 15 min glucose, Celltiter-Glo. How it is done: (§1) Example 158: ATP/Rotenone Assay
(§2) Day 1: Plate cells in Corning 96-Well Clear Bottom Black Polystyrene Microplates (corning 3340) in Glucose-free DMEM+10% dFBS • 80 uL/well • 25,000 cells/well for 293T • 10,000 cells/well for MCF7
(§3) Glucose DR to Establish Glucose EC50
(§4) • 1. […] Determine Compound IC50s • 1. 1 h pre-treat Rotenone/compound solution • Make 9× (90 uM) rotenone: 10 mM stock of Rotenone fresh—dilute 1:111× in Glucose-free DMEM). • Make compound dilution series in DMSO then dilute 1:111 in 90 uM rotenone in glucose-free media • Add 10 uL of 9× rotenone/compound solutions per well • 2. Stimulate with glucose for 15 min • Make glucose DR at 10× concentration in glucose-free DMEM • Add 10 uL per well and incubate at 37° C. for 15 min 3. Reconstitute and Measure • Remove plate, immediately add 100 uL of reconstituted Celltiter-Glo reagent (Promega; G7570) per well • Shake plate covered for 10 min at room temperature • Let plate sit for 2-5 min, read luminescence • Calculate IC50 for compounds
(Cellular ATP, detected with luciferase, serves as a proxy for viable cell number.)

The subject of the next test is 293T cells. Nature of the test: ATP/Rotenone assay, glucose dose response, 293T cells. Particulars: Homo sapiens, HEK-293T, 10 uM rotenone pre-treat, 15 min glucose, Celltiter-Glo. How it is done: as §1, §2, §3, §4

Structures are written as SMILES. Bounds are passed on as bounds.

As a reminder, the IC50 is the point on the concentration scale where inhibition reaches its midpoint. Consider `Cc1cc(C)c(C(=O)N2CCN(c3cccnn3)[C@H](CN)C2)c(C)c1NC1CCN(c2ccc(F)cc2C#N)CC1` [I-195, (R)-2-(4-(3-(3-(aminomethyl)-4-(pyridazin-3-yl)piperazine-1-carbonyl)-2,4,6-trimethylphenylamino)piperidin-1-yl)-5-fluorobenzonitrile], for which the 50% inhibitory concentration (IC50) with MCF-7 cells [1] was 3 to 5 µM; in test [2], > 10 µM; in test [3], 1 to 3 µM.

As a reminder, the EC50 is the concentration that produces a half-maximal response. `O=C[C@H](O)[C@@H](O)[C@H](O)[C@H](O)CO` [glucose]: the concentration for a half-maximal effect (EC50) in the test with MCF-7 cells [4] is ~250 µM; in the test on 293T cells, ~1000 µM.
